We go through two compounds from EP4653444A1, “FUSED TRICYCLIC COMPOUND AS KINASE INHIBITOR” (Hangzhou Innogate Pharma Co., Ltd., priority 2023, dated 2024).

Molecules are shown by their SMILES.

The nature of one data set: in vivo. The following applies: rat, po, 3 mg/kg.
The next data set has as its target FAK kinase (Homo sapiens, UniProt Q05397). In words: FAK kinase activity inhibition assay, method A (HTRF) and method B (Lantha screen). The data set is classed as biochemical. Here is the method:
The HTRF method was used to evaluate the inhibitory activity of the compounds against FAK kinase. […]. The reaction conditions were: FAK kinase at 0.1 ng/µL; ATP 10 µM; substrate concentration 1 µM. Compounds were serially diluted in DMSO and shaken on a shaker for 20 minutes. Prepare 2× kinase using 1× reaction buffer. Transfer 25 nL compound to a 384-well plate using Echo 655. Add 2.5 µL kinase per well. Seal the plate with sealing film, centrifuge at 1000 rpm for 60 seconds, and incubate at 25°C for 12 hours. Prepare 2× ATP/substrate mix using 1× enzyme reaction buffer and add 2.5 µL 2× ATP/substrate mix per well. Seal the plate with sealing film, centrifuge at 1000 rpm for 60 seconds, and incubate at 25°C for 50 minutes. Prepare 2×XL665 & antibody solution using HTRF detection buffer, and add 5 µL per well. Incubate at 25°C for 60 minutes. Read fluorescence at 620 nm (Cryptate) and 665 nm (XL665). Calculate the ratio per well (Ratio_665/620 nm). % Inhibition = 100% - [(Compound Ratio - Positive Control Ratio)/ (Negative Control Ratio - Positive Control Ratio)] × 100%. IC50 values (half-maximal inhibitory concentration) were calculated by nonlinear regression using GraphPad Prism 7.0. Y = Bottom + (Top - Bottom)/ (1 + 10^ ((LogIC50 - X) × Hill Slope)), where X is the log of compound concentration and Y is the % inhibition.
The Lantha screen assay was used to evaluate the FAK kinase inhibitory activity. Compounds were dissolved in 100% DMSO at 10 mM stock concentration. Prepare 1× kinase buffer (25 mM HEPES, pH 7.5, 0.01 mM Triton, 0.5 mM EGTA, 0.01% Brij-35). Dilute compounds in a gradient, and transfer 5 µL compound into the reaction plate. Prepare 2× kinase solution with 1× Kinase buffer. Add 5 µL kinase solution to compound and positive control wells, and 5 µL 1× Kinase buffer to negative control wells. Mix reaction plate by shaking. Prepare 4× ATP/Fluorescein-polyGT substrate mix with 1× Kinase buffer. Add 2.5 µL substrate solution to initiate the reaction. Shake and incubate at room temperature for 30 minutes. Prepare 2× detection reagent (2 nM antibody, 10 mM EDTA) and add 10 µL per well to stop the reaction. Briefly centrifuge, mix, and incubate for 60 minutes. Read fluorescence at 340 nm excitation and 520 nm/495 nm emission using EnVision. Collect data and calculate 520 nm/495 nm ratio. Calculate the inhibition percentage using the formula: % Inhibition = (Max - Sample Ratio)/(Max - Min) × 100, where min is the mean of negative control wells (no enzyme activity), and max is the mean of positive control wells (DMSO-inhibited conversion rate).Use XLFit Excel add-in version 5.4.0.8 to determine the IC50 values of each compound against the enzyme activity: Y = Bottom + (Top - Bottom)/(1 + (IC50/X)^HillSlope).
On the technique in general: Time-resolved FRET reads energy transfer from a long-lived donor to a nearby acceptor.

The next data set has as its target T1, FLT3 (Homo sapiens, UniProt P36888).
T1 sequence (P36888 27-993): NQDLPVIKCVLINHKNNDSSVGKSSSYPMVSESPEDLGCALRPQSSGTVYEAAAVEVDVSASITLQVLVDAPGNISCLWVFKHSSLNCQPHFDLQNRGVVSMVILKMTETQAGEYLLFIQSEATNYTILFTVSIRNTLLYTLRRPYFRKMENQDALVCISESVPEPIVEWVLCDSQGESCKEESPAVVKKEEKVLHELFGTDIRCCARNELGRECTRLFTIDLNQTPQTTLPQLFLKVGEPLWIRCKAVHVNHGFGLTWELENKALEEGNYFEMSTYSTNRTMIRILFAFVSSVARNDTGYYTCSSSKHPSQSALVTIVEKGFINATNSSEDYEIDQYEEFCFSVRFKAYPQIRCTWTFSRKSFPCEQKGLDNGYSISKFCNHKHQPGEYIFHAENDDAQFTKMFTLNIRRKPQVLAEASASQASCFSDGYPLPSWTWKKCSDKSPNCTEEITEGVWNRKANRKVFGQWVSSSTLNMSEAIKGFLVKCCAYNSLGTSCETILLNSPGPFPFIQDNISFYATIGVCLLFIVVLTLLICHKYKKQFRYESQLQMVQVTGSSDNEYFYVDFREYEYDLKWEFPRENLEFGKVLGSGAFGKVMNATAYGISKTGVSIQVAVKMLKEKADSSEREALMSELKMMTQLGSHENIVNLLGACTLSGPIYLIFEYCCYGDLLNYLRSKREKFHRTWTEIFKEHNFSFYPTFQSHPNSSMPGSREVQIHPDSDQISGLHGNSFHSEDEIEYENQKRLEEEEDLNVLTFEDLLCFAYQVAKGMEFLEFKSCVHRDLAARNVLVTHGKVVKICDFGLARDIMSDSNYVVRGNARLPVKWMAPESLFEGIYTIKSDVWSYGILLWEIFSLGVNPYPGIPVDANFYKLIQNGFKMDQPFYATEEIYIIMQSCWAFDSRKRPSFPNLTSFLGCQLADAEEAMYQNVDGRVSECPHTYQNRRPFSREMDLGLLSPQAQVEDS
In words: FLT3 kinase activity inhibition assay (Mobility shift assay). The data set is classed as biochemical. Here is the method: Testing compound inhibitory activity against FLT3 and AXL kinases using Mobility shift assay. Compounds were dissolved in 100% DMSO to prepare 10 mM stock solutions. Prepare 1× Kinase Buffer. Test compounds were serially diluted in 5-fold gradients, and 250 nL of 100× final concentration compounds were transferred to destination plate 3573 using an Echo 550 liquid handler. A 2.5× final concentration kinase solution was prepared in 1× Kinase Buffer. Then, 10 µL of the 2.5× kinase solution was added to both compound wells and positive control wells, while 10 µL of 1× Kinase Buffer was added to negative control wells. The plate was centrifuged at 1000 rpm for 30 seconds, mixed by orbital shaking, and incubated at room temperature for 10 minutes. A 5/3× final concentration mixture of ATP and Kinase Substrate 25 was prepared in 1× Kinase Buffer. The reaction was initiated by adding 15 µL of the 5/3× ATP/substrate mixture. The 384-well plate was centrifuged at 1000 rpm for 30 seconds, mixed by shaking, and incubated at room temperature for 120 minutes. The kinase reaction was terminated by adding 30 µL stop solution, followed by centrifugation at 1000 rpm for 30 seconds and mixing. Conversion rates were measured using a Caliper EZ Reader. %Inhibition = (Conversion%_max - Conversion%_sample)/(Conversion%_max - Conversion%_min) × 100. Where: Conversion%_sample: Conversion rate reading of test samples; Conversion%_min: Mean value of negative control wells (representing conversion rate without enzyme activity); Conversion%_max: Mean value of positive control wells (representing conversion rate without compound inhibition). Dose-response curves were plotted with log(concentration) as the X-axis and percentage inhibition as the Y-axis. Curve fitting was performed using GraphPad Prism 5 software with the "log(inhibitor) vs. response - Variable slope" model to derive IC50 values for each compound's enzyme inhibitory activity. The fitting formula was: Y = Bottom + (Top - Bottom)/(1 + 10^((LogIC50 - X) × HillSlope)).

The next data set addresses HPK1 kinase (Homo sapiens, UniProt Q92918). In words: HPK1 kinase activity inhibition assay (Mobility shift assay). The data set is classed as biochemical. The method, then:
Measure compound inhibitory activity against HPK1 kinase using Mobility shift assay. Compounds were dissolved in 100% DMSO to prepare 10 mM stock solutions. 1× Kinase buffer was prepared. Test compounds were serially diluted in 5-fold gradients, and 250 nL of 100× final concentration compounds were transferred to destination plate 3573 using an Echo 550 liquid handler. A 2.5× final concentration kinase solution was prepared in 1× Kinase Buffer. 10 µL of the 2.5× kinase solution was added to both compound wells and positive control wells, while 10 µL of 1× Kinase buffer was added to negative control wells. The plate was centrifuged at 1000 rpm for 30 seconds, mixed by orbital shaking, and incubated at room temperature for 10 minutes. A 5/3× final concentration mixture of ATP and Kinase substrate 25 was prepared in 1× Kinase buffer. 15 µL of the 5/3× ATP/substrate mixture was added to initiate the reaction. The 384-well plate was centrifuged at 1000 rpm for 30 seconds, mixed by shaking, and incubated at room temperature for 120 minutes. The kinase reaction was terminated by adding 30 µL stop solution, followed by centrifugation at 1000 rpm for 30 seconds and mixing. Conversion rates were measured using a Caliper EZ Reader. The inhibition percentage was calculated as: %Inhibition = (Conversion%_max - Conversion%_sample)/(Conversion%_max - Conversion%_min) × 100. Where Conversion%_sample: Conversion rate reading of test samples; Conversion%_min: Mean value of negative control wells (representing conversion rate without enzyme activity); Conversion%_max: Mean value of positive control wells (representing conversion rate without compound inhibition). Dose-response curves were plotted with log(concentration) as the X-axis and percentage inhibition as the Y-axis. Curve fitting was performed using GraphPad Prism 5 software with the "log(inhibitor) vs. response - Variable slope" model to derive IC50 values for each compound's enzyme inhibitory activity. The fitting formula was: Y = Bottom + (Top - Bottom)/(1 + 10^((LogIC50 - X) × HillSlope)).

Chain of HPK1 kinase (Q92918 whole entry): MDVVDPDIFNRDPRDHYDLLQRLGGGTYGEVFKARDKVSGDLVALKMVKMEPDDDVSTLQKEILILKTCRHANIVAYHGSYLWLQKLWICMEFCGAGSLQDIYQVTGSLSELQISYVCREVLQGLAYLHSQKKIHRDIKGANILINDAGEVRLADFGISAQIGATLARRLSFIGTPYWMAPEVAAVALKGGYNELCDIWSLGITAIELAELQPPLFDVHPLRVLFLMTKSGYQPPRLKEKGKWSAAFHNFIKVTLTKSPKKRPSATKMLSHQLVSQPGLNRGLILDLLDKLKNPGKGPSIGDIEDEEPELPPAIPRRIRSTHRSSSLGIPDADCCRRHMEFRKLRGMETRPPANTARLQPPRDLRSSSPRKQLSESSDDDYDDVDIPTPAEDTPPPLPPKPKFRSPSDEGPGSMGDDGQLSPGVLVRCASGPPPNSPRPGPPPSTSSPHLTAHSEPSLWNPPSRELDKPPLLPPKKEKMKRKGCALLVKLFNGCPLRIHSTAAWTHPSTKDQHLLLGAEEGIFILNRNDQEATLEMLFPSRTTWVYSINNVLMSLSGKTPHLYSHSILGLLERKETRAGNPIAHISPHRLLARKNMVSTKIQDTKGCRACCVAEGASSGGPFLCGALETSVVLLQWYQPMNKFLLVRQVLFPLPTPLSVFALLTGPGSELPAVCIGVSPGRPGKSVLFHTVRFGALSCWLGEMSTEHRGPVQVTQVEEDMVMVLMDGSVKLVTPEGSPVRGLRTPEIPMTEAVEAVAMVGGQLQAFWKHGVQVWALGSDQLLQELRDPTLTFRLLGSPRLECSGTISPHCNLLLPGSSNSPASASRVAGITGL
Chain of FAK kinase (Q05397 whole entry): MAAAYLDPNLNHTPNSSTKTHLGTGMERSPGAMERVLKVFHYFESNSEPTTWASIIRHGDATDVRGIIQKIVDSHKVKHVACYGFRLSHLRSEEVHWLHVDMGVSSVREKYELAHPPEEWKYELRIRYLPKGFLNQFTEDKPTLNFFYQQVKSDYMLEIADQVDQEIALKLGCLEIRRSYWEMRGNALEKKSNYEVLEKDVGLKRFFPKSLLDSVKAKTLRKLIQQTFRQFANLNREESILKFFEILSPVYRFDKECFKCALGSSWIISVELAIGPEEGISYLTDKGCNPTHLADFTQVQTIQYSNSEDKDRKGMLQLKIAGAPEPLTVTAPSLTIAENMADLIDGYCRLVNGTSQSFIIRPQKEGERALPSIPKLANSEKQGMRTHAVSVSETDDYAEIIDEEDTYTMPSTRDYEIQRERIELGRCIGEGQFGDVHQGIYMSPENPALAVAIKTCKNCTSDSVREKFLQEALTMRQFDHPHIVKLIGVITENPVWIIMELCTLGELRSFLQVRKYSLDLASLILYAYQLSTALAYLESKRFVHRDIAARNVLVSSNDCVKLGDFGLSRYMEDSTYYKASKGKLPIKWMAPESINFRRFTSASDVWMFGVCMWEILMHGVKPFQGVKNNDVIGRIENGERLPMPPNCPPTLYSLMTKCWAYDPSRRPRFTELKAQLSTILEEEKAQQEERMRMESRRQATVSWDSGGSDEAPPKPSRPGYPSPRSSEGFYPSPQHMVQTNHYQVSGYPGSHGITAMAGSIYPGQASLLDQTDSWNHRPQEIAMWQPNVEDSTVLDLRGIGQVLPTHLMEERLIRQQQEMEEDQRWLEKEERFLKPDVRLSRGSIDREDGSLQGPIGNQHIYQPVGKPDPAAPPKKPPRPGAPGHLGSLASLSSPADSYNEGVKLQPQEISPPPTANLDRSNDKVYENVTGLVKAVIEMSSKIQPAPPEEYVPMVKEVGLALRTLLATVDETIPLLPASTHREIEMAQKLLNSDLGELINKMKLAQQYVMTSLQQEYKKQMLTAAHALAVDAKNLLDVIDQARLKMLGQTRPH
Method for in vivo: Pharmacokinetic parameters were calculated by statistical moment method using WinNonLin 8.0 software, mainly including Tmax, T1/2, Cmax and AUC0-24h.
Animals: Three male SD rats weighing 200-220 g were used. After purchase, they were housed in the laboratory animal center for 2 days before experiment. […] Blood samples were collected at scheduled time points after oral gavage.
Vehicle: 0.4% ethanol + 0.4% Tween 80 + 99.2% (0.5% methylcellulose M450). Preparation of oral gavage solution: The compound was accurately weighed and dissolved in vehicle by ultrasonication for 5 min at room temperature to prepare 0.3 mg/mL drug solution.
Single compound administration was also used to study pharmacokinetics in rats.
Blood sample collection: After oral gavage, blood samples were collected from orbital sinus at 0.25, 0.5, 1, 2, 4, 8, 10 and 24 h. 50 µL plasma was mixed with 200 µL acetonitrile (containing 2 ng/mL verapamil as internal standard). The mixture was vortexed for 3 min, then centrifuged at 20000 rcf for 10 min at 4 °C. The supernatant was analyzed by LC-MS/MS.
Standard curves were established by accurately weighing and preparing compounds at different concentrations for mass spectrometric quantification. Compound concentrations in plasma samples were determined based on standard curves to obtain concentration-time profiles. All measurement data were collected and processed by relevant software. Pharmacokinetic parameters (including Tmax, T1/2, Cmax and AUC0-24h) were calculated by statistical moment method.

By AUC(0-t) is commonly meant exposure summed from dosing to a finite time, without extrapolation to infinity. Low values mean low exposure, high ones high exposure. A word on the Cmax: it is the highest concentration seen after dosing. As a reminder, the Tmax is the time at which the peak concentration occurs. As usually defined, the half-life is the time in which the quantity being followed falls by half. In the case of `CCc1cc2c(cc1Nc1ncc(C(F)(F)F)c(NCCCN3CCOCCC3=O)n1)OC[C@H]1CN(C3COC3)CCN21` [Compound A12R], in the data set “in vivo”, the AUC(0-t) at 24 h came to 1460 ng·h/mL, the Cmax was determined as 487 ng/mL, the Tmax was 0.5 h and the half-life is 1.76 h.

Usually IC50 stands for the point on the concentration scale where inhibition reaches its midpoint. Take `CNC(=O)c1ccccc1Nc1cc(Nc2cc3c(cc2OC)N2CCN(C4CCOCC4)C[C@@H]2CO3)ncc1C(F)(F)F` [Compound D1R]: the IC50 was < 3 nM against FAK kinase, < 30 nM at FLT3 and < 30 nM at HPK1 kinase.
